# Measurements taken from US11815435B2, “Beta glucan immunopharmacodynamics” (HiberCell, Inc., priority 2017, dated 2023).
# Tested on: anti-β-glucan antibody (ABA IgG, ABA IgM)
# Experiment: Example 1: IgG and IgM ABA levels in a cancer subject on IVIG, IMPRIME PGG and pembrolizumab
# Format: in vivo, human
# Conditions: same subject and regimen
# Description: Soluble β-glucan immunotherapy was administered to a subject diagnosed with glucaganoma. The subject's ABA level prior to immunotherapy treatment placed them in the Low-ABA subgroup, and therefore, their ABA level was boosted by administration of IVIG. GAMMAGARD at 100 mg/ml was intravenously administered prior to each treatment, which provided 161 μg ABA/ml. […] Each cycle was 3 weeks.
substance,measurement,setting,value
pembrolizumab [reference compound],ABA IgG,"cycle 1, day 2 EOI pembro",18.2 µg/mL
same,ABA IgM,"cycle 1, day 2 EOI pembro",5.3 µg/mL
same,ABA IgG,"cycle 2, day 1 EOI-pembro",49.4 µg/mL
same,ABA IgM,"cycle 2, day 1 EOI-pembro",9.6 µg/mL
same,ABA IgG,"cycle 3, day 1 EOI-pembro",60.7 µg/mL
